Data taken from DBAASP.
≈ marks a conversion by molar mass, not a printed value. Where “and” joins values, the source holds several entries; their conditions need not be identical. Identical values can stand only once. One block for each molecule: values may come before it.

What was measured:
Test in all cases: ≥ marks a high value that may be exact or a test limit, other limits are often not marked, values filed in µg/mL are converted to µM
[1] = tested on: Trichosporon beigelii KCTC 7707
[2] = tested on: Salmonella typhimurium KCTC 1926
[3] = tested on: Pseudomonas aeruginosa KCTC 1637
[4] = tested on: Staphylococcus epidermidis KCTC 3096
[5] = tested on: Bacillus subtilis KCTC 1918
[6] = tested on: Candida albicans TIMM 1768
[7] = tested on: Mycobacterium tuberculosis H37Rv
[8] = tested on: Staphylococcus aureus IFO 12732
[9] = tested on: Escherichia coli IFO 12734
[10] = tested on: Bacillus subtilis IFO 3513
[11] = tested on: Cryptococcus gattii ATCC 32608
[12] = tested on: Escherichia coli ATCC 25922
[13] = tested on: Staphylococcus epidermidis ATCC 12228
[14] = tested on: Acinetobacter baumannii ATCC 19606
[15] = tested on: Candida krusei ATCC 20029
[16] = tested on: Staphylococcus aureus ATCC 33591
[17] = tested on: Cryptococcus neoformans ATCC 24067
[18] = tested on: Pseudomonas aeruginosa ATCC 27853
[19] = tested on: Staphylococcus aureus FDA 209P
[20] = tested on: Batrachochytrium dendrobatidis
[21] = tested on: Staphylococcus aureus ATCC 25923
[22] = tested on: Pseudomonas aeruginosa ATCC BAA-427
[23] = tested on: Escherichia coli ATCC 10536
[24] = tested on: Bacillus subtilis ATCC 6633
[25] = tested on: Candida albicans ATCC 64550
[26] = tested on: Escherichia coli HB101
[27] = tested on: Escherichia coli BW25113 ΔsbmA
[28] = tested on: Escherichia coli ML-35
[29] = tested on: Serratia marcescens ATCC 8100
[30] = tested on: Escherichia coli BW25113
[31] = tested on: Salmonella enterica subsp. enterica serovar Typhimurium ATCC 14028
[32] = tested on: Escherichia coli TOP 10

MIC [1]: 6.25 µM (≈ 13.1 µg/mL) | MIC [2]: 0.19 µM (≈ 0.397 µg/mL) | MIC [3]: 1.56 µM (≈ 3.26 µg/mL) | MIC [4]: 3.12 µM (≈ 6.52 µg/mL) | MIC [5]: 3.12 µM (≈ 6.52 µg/mL) | MIC [6]: 12.5 µM (≈ 26.1 µg/mL)
Compound: CC[C@H](C)[C@H](NC(=O)CNC(=O)[C@@H](NC(=O)[C@H](CCCCN)NC(=O)[C@H](CCCCN)NC(=O)[C@H](Cc1ccccc1)NC(=O)[C@H](CC(C)C)NC(=O)[C@H](CCCCN)NC(=O)[C@H](Cc1c[nH]c2ccccc12)NC(=O)[C@H](CCCCN)NC(=O)[C@H](CCCCN)NC(=O)[C@H](CCCCN)NC(=O)[C@@H](N)CCCCN)[C@@H](C)CC)C(=O)NCC(=O)N[C@@H](CCCCN)C(=O)N[C@@H](Cc1ccccc1)C(=O)N[C@@H](CC(C)C)C(N)=O [KKKKWKLFKKIGIGKFL]

MIC [7]: ≥ 112 µM
Compound: CC[C@H](C)[C@H](NC(=O)[C@@H]1CCCN1C(=O)[C@H](CCCN=C(N)N)NC(=O)CNC(=O)[C@H](C)NC(=O)[C@H](CCCN=C(N)N)NC(=O)[C@H](Cc1cnc[nH]1)NC(=O)[C@H](C)NC(=O)[C@H](C)N)C(=O)N[C@@H](Cc1cnc[nH]1)C(=O)N[C@@H](CC(=O)O)C(=O)N[C@@H](C)C(=O)NCC(=O)N[C@H](C(=O)N[C@H](C(=O)N[C@@H](CCCCN)C(=O)N[C@@H](CCC(N)=O)C(=O)O)C(C)C)C(C)C [AAHRAGRPIHDAGVVKQ]

MIC [8]: 3.49 µM (≈ 6.25 µg/mL) | MIC [9]: ≥ 55.8 µM | MIC [10]: 3.49 µM (≈ 6.25 µg/mL)
Compound: CC[C@H](C)[C@H](N)C(=O)N[C@@H](CC(C)C)C(=O)N1CCC[C@H]1C(=O)N[C@@H](CCCCN)C(=O)N[C@@H](CCCCN)C(=O)N[C@@H](CCCCN)C(=O)N1CCC[C@H]1C(=O)N[C@@H](Cc1c[nH]c2ccccc12)C(=O)N[C@@H](Cc1c[nH]c2ccccc12)C(=O)N1CCC[C@H]1C(=O)N[C@@H](Cc1c[nH]c2ccccc12)C(=O)N[C@@H](CCCN=C(N)N)C(=O)N[C@@H](CCCN=C(N)N)C(N)=O [ILPKKKPWWPWRR]

MIC [11]: 3.73 µM (≈ 6.35 µg/mL) | MIC [12]: 14.9 µM (≈ 25.4 µg/mL) | MIC [13]: 4.18 µM (≈ 7.11 µg/mL) | MIC [14]: 5.27 µM (≈ 8.97 µg/mL) | MIC [15]: ≥ 37.6 µM | MIC [16]: 4.7 µM (≈ 8 µg/mL) | MIC [17]: 14.9 µM (≈ 25.4 µg/mL) | MIC [18]: 37.6 µM (≈ 64 µg/mL)
Compound: CC[C@H](C)[C@H](N)C(=O)N[C@@H](Cc1c[nH]c2ccccc12)C(=O)N[C@@H](CC(C)C)C(=O)N[C@H](C(=O)N[C@@H](C)C(=O)N[C@@H](CC(C)C)C(=O)N[C@@H](CCCCN)C(=O)N[C@@H](Cc1ccccc1)C(=O)N[C@@H](CC(C)C)C(=O)NCC(=O)N[C@@H](CCCCN)C(=O)N[C@@H](CC(N)=O)C(=O)N[C@@H](CC(C)C)C(=O)NCC(=O)N[C@@H](CCCCN)C(N)=O)[C@@H](C)O [IWLTALKFLGKNLGK]

MIC [19]: 4.3 µM (≈ 20.6 µg/mL) | MIC [12]: 2.8 µM (≈ 13.4 µg/mL) | MIC [20]: 25 µM and 12.5 µM
Compound: CC[C@H](C)[C@H](NC(=O)CN)C(=O)N[C@@H](Cc1ccccc1)C(=O)N[C@@H](CO)C(=O)N[C@@H](CCCCN)C(=O)N[C@@H](CC(C)C)C(=O)N[C@@H](C)C(=O)NCC(=O)N[C@@H](CCCCN)C(=O)N[C@@H](CCCCN)C(=O)N[C@H](C(=O)N[C@@H](CCCCN)C(=O)N[C@@H](CC(N)=O)C(=O)N[C@@H](CC(C)C)C(=O)N[C@@H](CC(C)C)C(=O)N[C@H](C(=O)N[C@@H](CO)C(=O)NCC(=O)N[C@@H](CC(C)C)C(=O)N[C@@H](CCCCN)C(=O)N[C@@H](CC(N)=O)C(=O)N[C@H](C(=O)NCC(=O)N[C@@H](CCCCN)C(=O)N[C@@H](CCC(=O)O)C(=O)N[C@H](C(=O)NCC(=O)N[C@@H](CCSC)C(=O)N[C@@H](CC(=O)O)C(=O)N[C@H](C(=O)N[C@H](C(=O)N[C@@H](CCCN=C(N)N)C(=O)N[C@H](C(=O)NCC(=O)N[C@H](C(=O)N[C@@H](CC(=O)O)C(=O)N[C@H](C(=O)N[C@@H](C)C(=O)NCC(=O)N[C@H]1CSSC[C@@H](C(=O)O)NC(=O)[C@H](CCC(=O)O)NC(=O)CNC(=O)[C@H](CCCCN)NC(=O)[C@H]([C@@H](C)CC)NC(=O)[C@H](CCCCN)NC1=O)[C@@H](C)CC)[C@@H](C)CC)[C@@H](C)O)C(C)C)C(C)C)C(C)C)C(C)C)[C@@H](C)CC)[C@@H](C)CC [GIFSKLAGKKIKNLLISGLKNVGKEVGMDVVRTGIDIAGCKIKGEC]

MIC [12]: 8 µM (≈ 12.1 µg/mL) | MIC [21]: 8 µM (≈ 12.1 µg/mL) | MIC [22]: 8 µM (≈ 12.1 µg/mL) | MIC [23]: 4 µM (≈ 6.07 µg/mL) | MIC [24]: 2 µM (≈ 3.04 µg/mL)
Compound: CC[C@H](C)[C@H](N)C(=O)N[C@@H](CC(C)C)C(=O)NCC(=O)N[C@@H](CCCCN)C(=O)N[C@H](C(=O)N[C@@H](Cc1c[nH]c2ccccc12)C(=O)N[C@@H](CCC(=O)O)C(=O)NCC(=O)N[C@@H](CCCCN)C(=O)N[C@@H](CCCCN)C(=O)N[C@@H](CO)C(=O)N[C@@H](CC(C)C)C(=O)N[C@@H](Cc1ccccc1)C(N)=O)[C@@H](C)CC [ILGKIWEGKKSLF]

MIC [12]: 6.97 µM and 5.22 µM | MIC [21]: 3.48 µM (≈ 5 µg/mL) | MIC [25]: ≥ 100 µM | MIC [18]: 3.48 µM (≈ 5 µg/mL)
Compound: C[C@H](NC(=O)[C@H](Cc1c[nH]c2ccccc12)NC(=O)[C@H](CCCN=C(N)N)NC(=O)[C@@H](N)Cc1ccc(O)cc1)C(=O)N[C@@H](CCCN=C(N)N)C(=O)N[C@@H](Cc1c[nH]c2ccccc12)C(=O)N[C@@H](Cc1c[nH]c2ccccc12)C(=O)N[C@@H](CCCN=C(N)N)C(=O)N[C@@H](CCCN=C(N)N)C(N)=O [YRWARWWRR]

MIC [26]: 0.5 µM (≈ 1.44 µg/mL) | MIC [27]: ≥ 52.1 µM | MIC [28]: 1 µM (≈ 2.88 µg/mL) | MIC [29]: 4 µM (≈ 11.5 µg/mL) | MIC [21]: > 128 µM | MIC [30]: 7.4 µM (≈ 21.3 µg/mL) | MIC [31]: 2 µM (≈ 5.76 µg/mL) | MIC [32]: 4.6 µM (≈ 13.3 µg/mL)
Compound: CC[C@H](C)[C@H](NC(=O)[C@H](CCCN=C(N)N)NC(=O)[C@@H](N)CCCN=C(N)N)C(=O)N[C@@H](CCCN=C(N)N)C(=O)N1CCC[C@H]1C(=O)N[C@@H](CCCN=C(N)N)C(=O)N1CCC[C@H]1C(=O)N1CCC[C@H]1C(=O)N[C@@H](CCCN=C(N)N)C(=O)N[C@@H](CC(C)C)C(=O)N1CCC[C@H]1C(=O)N[C@@H](CCCN=C(N)N)C(=O)N1CCC[C@H]1C(=O)N[C@@H](CCCN=C(N)N)C(=O)N1CCC[C@H]1C(=O)N[C@@H](CCCN=C(N)N)C(=O)N1CCC[C@H]1C(=O)N[C@@H](CC(C)C)C(=O)N1CCC[C@H]1C(=O)N[C@@H](Cc1ccccc1)C(=O)N1CCC[C@H]1C(=O)N[C@@H](CCCN=C(N)N)C(=O)N1CCC[C@H]1C(=O)O [RRIRPRPPRLPRPRPRPLPFPRP]

MIC [8]: 1.82 µM (≈ 3.13 µg/mL) | MIC [9]: 7.28 µM (≈ 12.5 µg/mL) | MIC [10]: 0.908 µM (≈ 1.56 µg/mL)
Compound: CC[C@H](C)[C@H](N)C(=O)N[C@@H](CC(C)C)C(=O)N1CCC[C@H]1C(=O)N[C@@H](Cc1c[nH]c2ccccc12)C(=O)N[C@@H](CCCCN)C(=O)N[C@@H](CCCCN)C(=O)N1CCC[C@H]1C(=O)N[C@@H](CCCCN)C(=O)N[C@@H](CC(C)C)C(=O)N1CCC[C@H]1C(=O)N[C@@H](Cc1c[nH]c2ccccc12)C(=O)N[C@@H](CCCN=C(N)N)C(=O)N[C@@H](CCCN=C(N)N)C(N)=O [ILPWKKPKLPWRR]
